Results: patent publication US3997403A, “Antibiotic G-418 and the production thereof” (Schering Corporation, priority 1975, dated 1976)

Tested on: E. Histolytica
Test: Oral activity against experimental cecal E. Histolytica infections in rats
Assay type: in vivo, male Royal Hart rats
Conditions: for A.D.I. (average degree of infection): scale 0 to 4, controls averaged 2.2
Source text: Table VII and Table VIII set forth in vivo test results which illustrate the antiprotozoal activity of Antibiotic G-418. The host for the tests were recently weaned male Royal Hart rats (3-4 weeks old) weighing about 50-70 g. The test procedure is a modification of one described by R. J. Schnitzer on pages 355-443 in Experimental Chemotherapy, Vol. 1, Academic Press, New York (1963).
*A.D.I. -- defined as the average degree of infection based upon gross
observations of pathological changes in the cecum and microscopic
observations of the number of amoebae found. These observations are
recorded on a scale of from zero to four, zero representing a
substantially normal cecum. Untreated but infected controls range from
about two to four. In the data set forth the controls averaged 2.2.

| SMILES | Parasitological Cure Negative/Total (oral 6.5 mg/kg/day, 1 day) | A.D.I. (average degree of infection) (oral 6.5 mg/kg/day, 1 day) | Parasitological Cure Negative/Total (oral 6.5 mg/kg/day, 3 days) | A.D.I. (average degree of infection) (oral 6.5 mg/kg/day, 3 days) | Parasitological Cure Negative/Total (oral 6.5 mg/kg/day, 6 days) | A.D.I. (average degree of infection) (oral 6.5 mg/kg/day, 6 days) | Parasitological Cure Negative/Total (oral 13 mg/kg/day, 6 days) | A.D.I. (average degree of infection) (oral 13 mg/kg/day, 6 days) | Parasitological Cure Negative/Total (oral 25 mg/kg/day, 6 days) | A.D.I. (average degree of infection) (oral 25 mg/kg/day, 6 days) | Parasitological Cure Negative/Total (oral 3.5 mg/kg/day, 3 days) | A.D.I. (average degree of infection) (oral 3.5 mg/kg/day, 3 days) | Parasitological Cure Negative/Total (oral 3.5 mg/kg/day, 6 days) | A.D.I. (average degree of infection) (oral 3.5 mg/kg/day, 6 days) | Parasitological Cure Negative/Total (oral 10 mg/kg/day, 1 day) | A.D.I. (average degree of infection) (oral 10 mg/kg/day, 1 day) | Parasitological Cure Negative/Total (oral 10 mg/kg/day, 3 days) | A.D.I. (average degree of infection) (oral 10 mg/kg/day, 3 days) | Parasitological Cure Negative/Total (oral 12 mg/kg/day, 6 days) | A.D.I. (average degree of infection) (oral 12 mg/kg/day, 6 days) |
| --- | --- | --- | --- | --- | --- | --- | --- | --- | --- | --- | --- | --- | --- | --- | --- | --- | --- | --- | --- | --- |
| Cc1ncc([N+](=O)[O-])n1CCO [Flagyl] | 0/4 | 1.5 | 0/3 | 1.7 | 1/4 | 0.8 | 2/6 | 0.8 | 1/5 | 0.8 | – | – | – | – | – | – | – | – | – | – |
| NC[C@@H]1O[C@H](O[C@H]2[C@@H](O)[C@H](O[C@@H]3[C@@H](O)[C@H](N)C[C@H](N)[C@H]3O[C@H]3O[C@H](CO)[C@@H](O)[C@H](O)[C@H]3N)O[C@@H]2CO)[C@H](N)[C@@H](O)[C@@H]1O [Paromomycin] | 0/4 | 1.0 | 1/5 | 1.0 | 2/4 | 1.3 | – | – | 6/7 | 0 | 1/7 | 1.9 | 1/6 | 1.5 | 0/7 | 2.1 | 2/6 | 1.0 | 4/8 | 0.8 |
